# Results reported in patent US6329531A, “Optical diagnostic agents for diagnosis of neurodegenerative diseases by means of near infrared radiation (NIR radiation)” (Schering AG, priority 1996, dated 2001).
# Where a name gives a salt, the structure may show the parent alone.
# Assay: Absorption and fluorescence maxima of the dye in water
# Type: physicochemical
# Conditions: H2O
SMILES,λMax.absorption (H2 O) [nm],λMax.fluorescence (H2 O) [nm]
"CC1(C)C(=CC=CC=CC=CC2=[N+](CCCCS(=O)(=O)[O-])c3ccc(C(=O)NCC(COS(=O)(=O)O)OS(=O)(=O)O)cc3C2(C)C)N(CCCCS(=O)(=O)O)c2ccccc21 (stereo not shown) [Example 1, N-(2,3-disulfato)propyl-1,1'-bis-(4-sulfobutyl)indotricarbocyanine-5-carboxylic acid amide, trisodium salt]",746,780
"CC1(C)C(=CC=CC=CC=CC2=[N+](CCCCS(=O)(=O)[O-])c3ccc(C(=O)N[C@H]4C(O)O[C@H](CO)[C@@H](O)[C@@H]4OS(=O)(=O)O)cc3C2(C)C)N(CCCCS(=O)(=O)O)c2ccccc21 (stereo partly drawn) [Example 2, Bis-1,1'-(4-Sulfobutyl)indotricarbocyanine-5-carboxylic acid-α-D-glucosamide-3""-sulfate, disodium salt]",745,779
"CC1(C)C(=CC=CC=CC=CC2=[N+](CCCCS(=O)(=O)[O-])c3ccc(C(=O)N[C@H]4C(O)O[C@H](CO)[C@@H](O)[C@@H]4OS(=O)(=O)O)cc3C2(C)C)N(CCCCS(=O)(=O)O)c2ccc(C(=O)N[C@H]3C(O)O[C@H](CO)[C@@H](O)[C@@H]3OS(=O)(=O)O)cc21 (stereo partly drawn) [Example 3, Bis-1,1'-(4-Sulfobutyl)indotricarbocyanine-5,5'-dicarboxylic acid-di-α-D-glucosamide-di-3""-sulfate, trisodium salt]",754,790
"CC1(C)C(=CC=CC=CC=CC2=[N+](CCCCS(=O)(=O)[O-])c3ccc(C(=O)N[C@H]4C(O)O[C@H](CO)[C@H](O)[C@@H]4O[C@@H]4O[C@H](C(=O)O)[C@@H](O)[C@H](O)[C@H]4O)cc3C2(C)C)N(CCCCS(=O)(=O)[O-])c2ccccc21.[Na+] (stereo partly shown) [Example 4, N-Chondrosin-bis-1,1'-(4-sulfobutyl)indotricarbocyanine-5-carboxylic acid amide, sodium salt]",746,779
CC1(C)C(=CC=CC=CC=CC2=[N+](CCCCS(=O)(=O)[O-])c3ccc(C(=O)NC4OC(CO)C(OC5OC(CO)C(OC6OC(CO)C(O)C(O)C6O)C(O)C5O)C(O)C4O)cc3C2(C)C)N(CCCCS(=O)(=O)O)c2ccccc21 (stereo not shown) [Example 5],748,779
